These compounds were tested against T1, Rhesus PDE2A3 (Macaca mulatta, UniProt B3VTJ2) (assay: PDE2 fluorescence polarization (IMAP FP) inhibition assay, rhesus PDE2A3). Conditions: Lab B; read-out: Rhesus PDE2 Ki (nM) Lab B.
T1 construct: made in house; host or cells: AD293 cells, transient transfection; supernatant of sonicated lysate
T1 sequence (B3VTJ2 1-941): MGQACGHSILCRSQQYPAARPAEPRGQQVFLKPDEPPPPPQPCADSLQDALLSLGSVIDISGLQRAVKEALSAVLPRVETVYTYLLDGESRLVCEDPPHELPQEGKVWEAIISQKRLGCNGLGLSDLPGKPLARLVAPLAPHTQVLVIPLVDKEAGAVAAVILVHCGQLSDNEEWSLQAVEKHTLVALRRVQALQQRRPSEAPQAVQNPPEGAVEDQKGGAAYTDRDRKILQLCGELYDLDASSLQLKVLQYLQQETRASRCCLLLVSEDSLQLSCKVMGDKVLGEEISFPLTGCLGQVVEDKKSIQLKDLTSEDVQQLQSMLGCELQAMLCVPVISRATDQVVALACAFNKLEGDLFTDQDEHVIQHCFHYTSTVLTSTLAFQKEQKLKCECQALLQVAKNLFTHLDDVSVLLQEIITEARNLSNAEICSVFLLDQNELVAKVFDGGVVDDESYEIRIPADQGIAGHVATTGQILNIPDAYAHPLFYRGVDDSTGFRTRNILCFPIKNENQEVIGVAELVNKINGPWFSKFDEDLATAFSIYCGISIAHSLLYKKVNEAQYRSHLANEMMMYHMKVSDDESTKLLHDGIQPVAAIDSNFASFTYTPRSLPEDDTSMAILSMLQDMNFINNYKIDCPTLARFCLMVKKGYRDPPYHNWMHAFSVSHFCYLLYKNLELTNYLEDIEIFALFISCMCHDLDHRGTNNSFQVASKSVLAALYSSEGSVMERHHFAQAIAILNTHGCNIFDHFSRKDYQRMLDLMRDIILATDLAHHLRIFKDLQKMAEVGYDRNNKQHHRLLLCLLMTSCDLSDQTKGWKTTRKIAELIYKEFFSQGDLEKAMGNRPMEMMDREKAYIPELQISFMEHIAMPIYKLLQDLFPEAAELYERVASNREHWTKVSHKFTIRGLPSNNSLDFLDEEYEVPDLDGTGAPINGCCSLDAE
Assay type: biochemical, rhesus macaque
In short: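 Enzyme source was the lysate supernatant of AD293 cells transiently expressing rhesus PDE2A3, diluted to give 20% conversion of 50 nM FAM-cAMP, with 1 µM cGMP as activator. Buffer was 10 mM Tris pH 7.2, 10 mM MgCl2, 1 mM DTT.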

Compared with `CC(C)c1nc2c(c(CO)nn2C(C)c2ccc(C(F)(F)F)cc2)c(=O)[nH]1` (racemic) [Example 296, 3-(Hydroxymethyl)-6-(1-methylethyl)-1-{1-[4-(trifluoromethyl)phenyl]ethyl}-1,5-dihydro-4H-pyrazolo[3,4-d]pyrimidin-4-one], `Cc1nc2c(c(CO)nn2C(c2ccc(C(F)(F)F)cc2)C(C)(C)C)c(=O)[nH]1` (single isomer, unassigned) [Example 83, (S)- or (R)-1-(2,2-Dimethyl-1-(4-(trifluoromethyl)phenyl)-propyl)-3-(hydroxymethyl)-6-methyl-1H-pyrazolo[3,4-d]pyrimidin-4(5H)-one] is 3.8-fold lower in Ki: 36 nM for the first, 9.4 nM for the second.

`Cc1nc2c(c(CO)nn2C(C)c2ccc(C(F)(F)F)cc2F)c(=O)[nH]1` (single isomer, unassigned) [Example 17, (S)- or (R)-1-(1-(2-Fluoro-4-(trifluoromethyl)phenyl)ethyl)-3-(hydroxymethyl)-6-methyl-1H-pyrazolo[3,4-d]pyrimidin-4(5H)-one] and `Cc1nc2c(c(CO)nn2C(C)c2ccc(C(F)(F)F)cc2Cl)c(=O)[nH]1` (single isomer, unassigned) [Example 19, (S)- or (R)-1-(1-(2-Chloro-4-(trifluoromethyl)phenyl)ethyl)-3-(hydroxymethyl)-6-methyl-1H-pyrazolo[3,4-d]pyrimidin-4(5H)-one] are within 1.5-fold of each other in Ki: 1.7 nM for the first, 1.9 nM for the second.

Compared with `Cc1nc2c(c(CO)nn2C(C)c2ccc(OC(F)F)cc2)c(=O)[nH]1` (single isomer, unassigned) [Example 21, (S)- or (R)-1-(1-(4-(Difluoromethoxy)phenyl)ethyl)-3-(hydroxymethyl)-6-methyl-1H-pyrazolo[3,4-d]pyrimidin-4(5H)-one], `Cc1nc2c(c(CO)nn2C(C)c2ccc(SC(F)(F)F)cc2)c(=O)[nH]1` (single isomer, unassigned) [Example 23, (S)- or (R)-3-(Hydroxymethyl)-6-methyl-1-(1-(4-(trifluoromethylthio)phenyl)ethyl)-1H-pyrazolo[3,4-d]pyrimidin-4(5H)-one] is 1.7-fold lower in Ki: 2.9 nM for the first, 1.7 nM for the second. The second binds more tightly here.

Going from `Cc1nc2c(c(CO)nn2C(c2ccc(C(F)(F)F)cc2)C2(C)CC2)c(=O)[nH]1` (single isomer, unassigned) [Example 24, (R)- or (S)-3-(Hydroxymethyl)-6-methyl-1-((1-methylcyclopropyl)(4-(trifluoromethyl)phenyl)methyl)-1H-pyrazolo[3,4-d]pyrimidin-4(5H)-one] to `Cc1nc2c(c(CC(F)(F)F)nn2C(c2ccc(C(F)(F)F)cc2)C2(C)CC2)c(=O)[nH]1` (single isomer, unassigned) [Example 59, (S)- or (R)-6-Methyl-1-((1-methylcyclopropyl)(4-(trifluoromethyl)phenyl)methyl)-3-(2,2,2-trifluoroethyl)-1H-pyrazolo[3,4-d]pyrimidin-4(5H)-one], the Ki rises from 1.9 nM to 22 nM (12-fold). The first binds more tightly here.

`Cc1nc2c(c(CC(F)(F)F)nn2C(c2ccc(C(F)(F)F)cc2)C(C)(C)C)c(=O)[nH]1` (single isomer, unassigned) [Example 57, (S)- or (R)-1-(2,2-Dimethyl-1-(4-(trifluoromethyl)phenyl)propyl)-6-methyl-3-(2,2,2-trifluoroethyl)-1H-pyrazolo[3,4-d]pyrimidin-4(5H)-one] and `Cc1nc2c(c(CO)nn2C(c2ccc(C(C)(C)C)cc2)C2CC2)c(=O)[nH]1` (single isomer, unassigned) [Example 88, (R)- or (S)-1-((4-tert-Butylphenyl)(cyclopropyl)methyl)-3-(hydroxymethyl)-6-methyl-1H-pyrazolo[3,4-d]pyrimidin-4(5H)-one] are within 1.5-fold of each other in Ki: 69 nM for the first, 51 nM for the second.

Compared with `Cc1nc2c(c(CO)nn2C(C)c2ccc(S(F)(F)(F)(F)F)cc2)c(=O)[nH]1` (single isomer, unassigned) [Example 77], `Cc1nc2c(c(CO)nn2C(c2ccc(OC(F)(F)F)cc2)C(C)C)c(=O)[nH]1` (single isomer, unassigned) [Example 84, (R)- or (S)-3-(Hydroxymethyl)-6-methyl-1-(2-methyl-1-(4-(trifluoromethoxy)phenyl)propyl)-1H-pyrazolo[3,4-d]pyrimidin-4(5H)-one] is 3.8-fold higher in Ki: 4.2 nM for the first, 16 nM for the second.

First: Cc1nc2c(c(CO)nn2C(c2ccc(OC(F)(F)F)cc2)C(C)C)c(=O)[nH]1 (single isomer, unassigned) [Example 85, (S)- or (R)-3-(Hydroxymethyl)-6-methyl-1-(2-methyl-1-(4-(trifluoromethoxy)phenyl)propyl)-1H-pyrazolo[3,4-d]pyrimidin-4(5H)-one]
Second: Cc1nc2c(c(CO)nn2C(c2ccc(C(F)(F)F)c(F)c2)C(C)C)c(=O)[nH]1 (single isomer, unassigned) [Example 87, (S)- or (R)-1-(1-(3-Fluoro-4-(trifluoromethyl)phenyl)-2-methylpropyl)-3-(hydroxymethyl)-6-methyl-1H-pyrazolo[3,4-d]pyrimidin-4(5H)-one]
The Ki of the first is 3.5-fold lower: 0.91 nM for the first, 3.2 nM for the second. The first binds more tightly here.

First: Cc1nc2c(c(CO)nn2C(c2ccc(C(C)(C)C)cc2)C2CC2)c(=O)[nH]1 (single isomer, unassigned) [Example 89, (S)- or (R)-1-((4-tert-Butylphenyl)(cyclopropyl)methyl)-3-(hydroxymethyl)-6-methyl-1H-pyrazolo[3,4-d]pyrimidin-4(5H)-one]
Second: Cc1nc2c(c(CO)nn2C(c2ccc(C(F)(F)F)c(F)c2)C2CC2)c(=O)[nH]1 (single isomer, unassigned) [Example 90, (R)- or (S)-1-(Cyclopropyl(3-fluoro-4-(trifluoromethyl)phenyl)methyl)-3-(hydroxymethyl)-6-methyl-1H-pyrazolo[3,4-d]pyrimidin-4(5H)-one]
The Ki of the first is 190-fold lower: 0.48 nM for the first, 90 nM for the second. The first binds more tightly here.

Going from `Cc1nc2c(c(CO)nn2C(c2ccc(C(F)(F)F)c(F)c2)C2CC2)c(=O)[nH]1` (single isomer, unassigned) [Example 91, (S)- or (R)-1-(Cyclopropyl(3-fluoro-4-(trifluoromethyl)phenyl)methyl)-3-(hydroxymethyl)-6-methyl-1H-pyrazolo[3,4-d]pyrimidin-4(5H)-one] to `Cc1nc2c(c(CF)nn2C(c2ccc(C(F)(F)F)c(F)c2)C2CC2)c(=O)[nH]1` (single isomer, unassigned) [Example 226, (R)- or (S)-1-(Cyclopropyl(3-fluoro-4-(trifluoromethyl)phenyl)methyl)-3-(fluoromethyl)-6-methyl-1,5-dihydro-4H-pyrazolo[3,4-d]pyrimidin-4-one], the Ki falls from 1 nM to 0.33 nM (3-fold).

First: Cc1nc2c(c(CO)nn2C(c2ccc(OC(F)(F)F)c(F)c2)C2CC2)c(=O)[nH]1 (single isomer, unassigned) [Example 92, (R)- or (S)-1-(Cyclopropyl(3-fluoro-4-(trifluoromethoxy)phenyl)methyl)-3-(hydroxymethyl)-6-methyl-1H-pyrazolo[3,4-d]pyrimidin-4(5H)-one]
Second: Cc1nc2c(c(CF)nn2C(c2ccc(OC(F)(F)F)c(F)c2)C2CC2)c(=O)[nH]1 (single isomer, unassigned) [Example 228, (R)- or (S)-1-(Cyclopropyl(3-fluoro-4-(trifluoromethoxy)phenyl)methyl)-3-(fluoromethyl)-6-methyl-1,5-dihydro-4H-pyrazolo[3,4-d]pyrimidin-4-one]
The Ki of the first is 20-fold higher: 10 nM for the first, 0.5 nM for the second. The second binds more tightly here.

Going from `Cc1nc2c(c(CO)nn2C(c2ccc(OC(F)(F)F)c(F)c2)C2CC2)c(=O)[nH]1` (single isomer, unassigned) [Example 93, (S)- or (R)-1-(Cyclopropyl(3-fluoro-4-(trifluoromethoxy)phenyl)methyl)-3-(hydroxymethyl)-6-methyl-1H-pyrazolo[3,4-d]pyrimidin-4(5H)-one] to `Cc1nc2c(c(CF)nn2C(c2ccc(OC(F)(F)F)cc2)C2CC2)c(=O)[nH]1` (single isomer, unassigned) [Example 224, (R)- or (S)-1-(Cyclopropyl(4-(trifluoromethoxy)phenyl)methyl)-3-(fluoromethyl)-6-methyl-1,5-dihydro-4H-pyrazolo[3,4-d]pyrimidin-4-one], the Ki falls from 1.9 nM to 0.94 nM (2-fold). The second binds more tightly here.

First: COc1ccc(Cc2nc3c(c(CF)nn3C(C)c3ccc(C(F)(F)F)cc3)c(=O)[nH]2)cc1 (single isomer, unassigned) [Example 219, (S)- or (R)-3-(Fluoromethyl)-6-(4-methoxybenzyl)-1-(1-(4-(trifluoromethyl)phenyl)ethyl)-1H-pyrazolo[3,4-d]pyrimidin-4(5H)-one]
Second: COc1cccc(Cc2nc3c(c(CF)nn3C(C)c3ccc(C(F)(F)F)cc3)c(=O)[nH]2)c1 (single isomer, unassigned) [Example 221, (S)- or (R)-3-(Fluoromethyl)-6-(3-methoxybenzyl)-1-(1-(4-(trifluoromethyl)phenyl)ethyl)-1H-pyrazolo[3,4-d]pyrimidin-4(5H)-one]
The Ki of the first is 2.2-fold lower: 0.87 nM for the first, 1.9 nM for the second. The first binds more tightly here.

From patent publication US10160762B2, “6-alkyl dihydropyrazolopyrimidinone compounds as PDE2 inhibitors” (Merck Sharp & Dohme Corp., priority 2015, dated 2018)
